ChEMBL document CHEMBL1201862, “PubChem BioAssay data set” (2004)
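Results reflect a 48-hour exposure of cells in 96-well plates to compound at five concentrations. GI50 marks 50% less growth.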 Activity calls are given as the source filed them. No stated cut-off is given here; in the data, active = GI50 up to about 1.1 µM and inactive = higher.

Experiments:
Assay in all cases: NCI tumour cell line growth inhibition, 48 h
XF498 = tested on: XF498
KM-20L2 = tested on: KM-20L2
DMS-273 = tested on: DMS-273
DMS-114 = tested on: DMS-114
LXFL 529 = tested on: LXFL 529
DLD-1 = tested on: DLD-1
RXF 631 = tested on: RXF 631
M19-MEL = tested on: M19-MEL
HOP-18 = tested on: HOP-18

| SMILES | GI50 (XF498) | GI50 (KM-20L2) | GI50 (DMS-273) | GI50 (DMS-114) | GI50 (LXFL 529) | GI50 (DLD-1) | GI50 (RXF 631) | GI50 (M19-MEL) | GI50 (HOP-18) |
| --- | --- | --- | --- | --- | --- | --- | --- | --- | --- |
| CSc1nnc(C(C#N)C#N)nn1 | > 100 µM (inactive) | > 100 µM (inactive) | > 100 µM (inactive) | > 100 µM (inactive) | > 100 µM (inactive) | > 100 µM (inactive) | > 100 µM (inactive) | > 100 µM (inactive) |  |
| Cc1cc(=O)n(-c2ccccc2C)c(C)n1 |  | > 100 µM (inactive) | > 100 µM (inactive) | > 100 µM (inactive) | > 100 µM (inactive) | > 100 µM (inactive) | > 100 µM (inactive) | > 100 µM (inactive) | > 100 µM (inactive) |
| Cc1ccc(/C=C2\CCCC(C(NO)c3ccc(C)cc3)C2=NO)cc1 (stereo unspecified) | 43.7 µM (inactive) | 21.7 µM (inactive) | 42 µM (inactive) | 30.3 µM (inactive) | 61.7 µM (inactive) | 28 µM (inactive) | 27.4 µM (inactive) | 69.5 µM (inactive) | 11.4 µM (inactive) |
| CCOC(C)C(/C=N/NC(N)=S)=NNC(N)=S (stereo unspecified) [GLOXAZONE] |  |  |  | < 0.01 µM (active) | 0.0865 µM (active) | > 100 µM (inactive) |  | > 100 µM (inactive) |  |
| COc1cc(/C=N/N=C(\N)NO)ccc1O |  |  |  | 39.9 µM (inactive) | 28.6 µM (inactive) | > 100 µM (inactive) |  |  |  |
| COc1cc(C=C2C(=O)OC(C)(C)OC2=O)cc(OC)c1OC |  | > 100 µM (inactive) | > 100 µM (inactive) | > 100 µM (inactive) | > 100 µM (inactive) | > 100 µM (inactive) |  | > 100 µM (inactive) | > 100 µM (inactive) |
| CCCCCCCCCCCCCCCC(=O)Nc1ccn(C2OC(CO)C(O)C2O)c(=O)n1 (stereo unspecified) |  | 40.3 µM (inactive) | 5.66 µM (inactive) | 4.89 µM (inactive) | 39.5 µM (inactive) | > 54.7 µM (inactive) |  | 13.1 µM (inactive) | 21.4 µM (inactive) |
| NNC(=O)N/N=C1\C(=O)N(c2ccc(Cl)c(Cl)c2)C(=O)C(=O)C1c1nc2ccccc2s1 (stereo unspecified) | > 100 µM (inactive) | > 100 µM (inactive) | > 100 µM (inactive) | > 100 µM (inactive) | > 100 µM (inactive) | > 100 µM (inactive) |  |  | > 100 µM (inactive) |
| COc1ccc(N2C(=O)C3CC(c4ccc(C)cc4)c4c([nH]c5ccccc45)C3C2=O)cc1 (stereo unspecified) | 27.2 µM (inactive) | 10.9 µM (inactive) | 24.1 µM (inactive) | > 49.7 µM (inactive) | 28.7 µM (inactive) | 38.6 µM (inactive) |  | > 75.9 µM (inactive) | 2.88 µM (inactive) |
| N=C(N)NCCCCCCC(=O)NC(O)C(=O)NCCCCNCCCN (stereo unspecified) | 100 µM (inactive) | 600 µM (inactive) | > 750 µM (inactive) | 69.2 µM (inactive) |  | 723 µM (inactive) |  | 719 µM (inactive) | 710 µM (inactive) |
| O=C(O)/C(Cl)=C(Cl)/C=N/NC(=O)c1cc2ccccc2cc1O | 35.4 µM (inactive) | 28.8 µM (inactive) | 6.84 µM (inactive) | 17.3 µM (inactive) | 21.6 µM (inactive) | 7.69 µM (inactive) | 26.4 µM (inactive) | 17.9 µM (inactive) | 13.5 µM (inactive) |
| Cc1ccccc1C1OC(=O)c2ccccc21 (stereo unspecified) |  | > 100 µM (inactive) | > 100 µM (inactive) | > 100 µM (inactive) | > 100 µM (inactive) | > 100 µM (inactive) | > 100 µM (inactive) | > 100 µM (inactive) | > 100 µM (inactive) |
| CC12CC(Br)(Br)C(=O)C3C1CCCC32 | 8.73 µM (inactive) | 17.4 µM (inactive) | 6.58 µM (inactive) | 6.3 µM (inactive) | 2.38 µM (inactive) | 4.63 µM (inactive) |  | 8.34 µM (inactive) | 9.89 µM (inactive) |
| C=CCNC(=S)NNC(=O)c1c(C)nc2sccn12 | > 100 µM (inactive) | > 100 µM (inactive) | > 100 µM (inactive) | > 100 µM (inactive) | > 100 µM (inactive) | > 100 µM (inactive) | > 100 µM (inactive) | > 100 µM (inactive) | > 100 µM (inactive) |
| Cc1ccc(S(=O)(=O)C(CC(NC=O)S(=O)(=O)c2ccc(C)cc2)NC=O)cc1 (stereo unspecified) | > 100 µM (inactive) | > 100 µM (inactive) | > 100 µM (inactive) | > 100 µM (inactive) | > 100 µM (inactive) | > 100 µM (inactive) | > 100 µM (inactive) | > 100 µM (inactive) |  |
| COc1cc2c(c(OC)c1OC)-c1ccc(SC)c(=O)cc1[C@@H](NCc1ccc([N+](=O)[O-])cc1)CC2 | 0.00899 µM (active) | 0.00158 µM (active) | 0.00288 µM (active) | 0.00253 µM (active) | 0.00635 µM (active) | 0.00402 µM (active) |  | 0.00379 µM (active) |  |
| NCC(NC(=O)OCc1ccccc1)C(=O)O (stereo unspecified) |  | > 50 µM (inactive) | > 50 µM (inactive) | > 50 µM (inactive) | > 50 µM (inactive) | > 50 µM (inactive) |  | > 50 µM (inactive) | > 50 µM (inactive) |
| Cc1cc2c(C)nn(Cc3ccccc3Cl)c2c(C#N)c1C | > 100 µM (inactive) | > 100 µM (inactive) | > 100 µM (inactive) |  | > 100 µM (inactive) | > 100 µM (inactive) | > 100 µM (inactive) | > 100 µM (inactive) | > 100 µM (inactive) |
| CCOC1=C2N=C(C(CC)c3ccccc3F)N=C2C(=O)c2ccccc21 (stereo unspecified) |  | > 100 µM (inactive) | > 100 µM (inactive) | > 100 µM (inactive) | > 100 µM (inactive) |  | > 100 µM (inactive) | > 100 µM (inactive) |  |
| N#CCCn1[nH]c(=O)c(Cl)c(Cl)c1=O | 16.1 µM (inactive) | 15.8 µM (inactive) |  | 14.9 µM (inactive) | 16.9 µM (inactive) | 10.3 µM (inactive) | 19.6 µM (inactive) | 12 µM (inactive) | 16.9 µM (inactive) |
| c1ccc2cc(C3NCCc4nc[nH]c43)ccc2c1 (stereo unspecified) |  | 42.7 µM (inactive) | 69.2 µM (inactive) | 35.6 µM (inactive) | 54.2 µM (inactive) | 62.2 µM (inactive) |  | 29.9 µM (inactive) | 47 µM (inactive) |
| N=C1OC(c2ccc3c(c2)OCO3)C(NNS(=O)(=O)c2ccccc2)=C1O (stereo unspecified) |  | > 100 µM (inactive) | > 100 µM (inactive) | > 100 µM (inactive) | 58.2 µM (inactive) | > 100 µM (inactive) |  | 30.4 µM (inactive) | > 100 µM (inactive) |
| CCN1C[C@]2(C)CC[C@H](OC)C34C1C([C@H](OC(C)=O)[C@@H]32)[C@@]1(OC)C[C@H](OC)[C@H]2C[C@@H]4[C@@H]1[C@H]2O | > 100 µM (inactive) | > 100 µM (inactive) | > 100 µM (inactive) | 82.4 µM (inactive) | > 100 µM (inactive) | > 100 µM (inactive) |  | > 100 µM (inactive) | > 100 µM (inactive) |
| CC(=O)OC1CC2(C)OC(Cc3ccccc32)O1 (stereo unspecified) | > 100 µM (inactive) | > 100 µM (inactive) | > 100 µM (inactive) | > 100 µM (inactive) |  | > 100 µM (inactive) |  | > 100 µM (inactive) | > 100 µM (inactive) |
| C=CCCCN1CCCCC1=S | > 100 µM (inactive) | > 100 µM (inactive) | > 100 µM (inactive) | > 100 µM (inactive) |  | > 100 µM (inactive) | > 100 µM (inactive) | > 100 µM (inactive) | > 100 µM (inactive) |
| CCOC(C/N=c1/nc(N(C)C)ss1)OCC | 15 µM (inactive) | 27.7 µM (inactive) | 23 µM (inactive) | 18 µM (inactive) | 0.489 µM (active) | 16.4 µM (inactive) | 18.4 µM (inactive) | 0.504 µM (active) | > 66.4 µM (inactive) |
| CN1NC2(CCCCC2)ON=C1c1ccccc1 |  | > 100 µM (inactive) |  | > 100 µM (inactive) |  | > 100 µM (inactive) |  |  | > 100 µM (inactive) |
| CCCCN(CCCC)C(=O)C(=O)C(C)C(=O)CC (stereo unspecified) | > 100 µM (inactive) | > 100 µM (inactive) | > 100 µM (inactive) |  | > 100 µM (inactive) | > 100 µM (inactive) |  |  |  |
| Cc1ccc(-c2cc(=O)c3cc(C)c(C)c(C(=O)O)c3o2)cc1 | > 100 µM (inactive) | > 100 µM (inactive) | > 100 µM (inactive) | > 100 µM (inactive) | > 100 µM (inactive) | > 100 µM (inactive) | > 100 µM (inactive) | > 100 µM (inactive) |  |
| O=C(c1ccccc1)c1c(CNCc2ccccc2)n(C(=O)c2ccccc2)c2ccccc12 | > 100 µM (inactive) | 40 µM (inactive) | 47.1 µM (inactive) | 21.2 µM (inactive) | 30.4 µM (inactive) | 35.4 µM (inactive) |  | 92.3 µM (inactive) |  |
